{"source": "patent US20210145802A1", "about": "“THERAPY FOR OPHTHALMOLOGICAL CONDITIONS” (WREN THERAPEUTICS LIMITED, priority 2018, published 2021)", "key": {"[1]": {"test_system": "GMC101 (Aβ worms)", "experiment": "Automated motility assay, Aβ worms", "format": "in vivo, C. elegans", "method": "GMC101 dvIs100[unc-54p::A-beta-1-42::unc-54 3′UTR+mt1-2p::GFP]. mt1-2p::GFP produces constitutive expression of GFP in intestinal cells. unc-54p::A-beta-1-42 expresses full-length human Aβ42 peptide in body wall muscle cells that aggregates in vivo. Shifting L4 or young adult animals from 20° to 24° C. causes paralysis (G. McColl et al., Utility of an improved model of amyloid-beta (Aβ1-42) toxicity in Caenorhabditis elegans for drug screening for Alzheimer's disease. Mol Neurodegener. 7, 57 (2012));\n(§1) Briefly, Netoglitazone stocks (5 mM in 100% DMSO) were used at an appropriate concentration to seed 9-cm NGM plates. Plates were then placed in a laminar flow hood at room temperature (22° C.) for up to 4 hours to dry. C. elegans cultures were then transferred onto media seeded with compound as L4 stage or Day 3 for late treatments and incubated at 24° for the whole experiment. Experiments were carried out at different Netoglitazone concentrations ranging from 0.05 to 500 μM in 1% DMSO. As controls, plates seeded only with 1% DMSO were used.\n(§2) All C. elegans populations were cultured at 20° C. and developmentally synchronized from a 4 h egg-lay. At 64-72 h post-egg-lay (time zero), individuals were transferred to FUDR plates, and body movements were assessed over the times indicated. At different ages, the animals were washed off the plates with M9 buffer and spread over an OP-50 unseeded 9 cm plate, after which their movements were recorded at 20 fps using a recently developed microscopic procedure (M. Perni et al., Massively parallel C. elegans tracking provides multi-dimensional fingerprints for phenotypic discovery. J. Neurosci. Methods. 306, 57-67 (2018)) for 1 min. Up to 600 animals were counted in each experiment in duplicate unless stated otherwise. […]\nIn order to screen for the effect of therapeutics in the most robust way, a wide field-of-view nematode-tracking platform (WF-NTP) was used, which enables the simultaneous investigation of multiple phenotypic readouts on large worm populations. […]"}, "[2]": {"target": "T1, Aβ42 (Homo sapiens, UniProt P05067)", "T1 construct": "[…]; made in house; host or cells: E. coli BL21 Gold (DE3)", "T1 sequence (P05067 671-713)": "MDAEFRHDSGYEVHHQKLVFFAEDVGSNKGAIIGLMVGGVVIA", "experiment": "ThT kinetic assay of Aβ42 fibril formation (unseeded)", "format": "biochemical", "conditions": "2 μM Aβ42; range of Netoglitazone concentrations; ThT fluorescence", "source_text": "The recombinant Aβ(M1-42) peptide ([…]-SNKGAIIGLMVGGVVIA [SEQ ID NO: 1]), here called Aβ42, was expressed in the E. coli BL21 Gold (DE3) strain (Stratagene, CA, U.S.A.) and purified as described previously with slight modifications. Briefly, the purification procedure involved sonication of E. coli cells, dissolution of inclusion bodies in 8 M urea, and ion exchange in batch mode on diethylaminoethyl cellulose resin and lyophylization. The lyophilized fractions were further purified using Superdex 75 HR 26/60 column (GE Healthcare, Buckinghamshire, U.K.) and eluates were analyzed using SDS-PAGE for the presence of the desired protein product. The fractions containing the recombinant protein were combined, frozen using liquid nitrogen, and lyophilized again.\nExcept for Netoglitazone, which was custom synthesised by GVK BIO, all small molecules were purchased with a purity greater than 99%. Small molecules were first solubilized in 100% DMSO to a concentration of 5 mM, and then diluted in the peptide solution to reach a final DMSO concentration of maximum 1-3%. We verified that the addition of DMSO in the reaction mixture has no effect on Aβ42 aggregation.\nSolutions of monomeric peptides were prepared by dissolving the lyophilized Aβ42 peptide in 6 M GuHCl. Monomeric forms were purified from potential oligomeric species and salt using a Superdex 75 10/300 GL column (GE Healthcare) at a flowrate of 0.5 mL/min, and were eluted in 20 mM sodium phosphate buffer, pH 8 supplemented with 200 μM EDTA and 0.02% NaN3. The centre of the peak was collected, and the peptide concentration was determined from the absorbance of the integrated peak area using ε280=1490 L mol^−1 cm^−1. The obtained monomer was diluted with buffer to the desired concentration and supplemented with 20 μM Thioflavin T (ThT) from a 1 mM stock. All samples were prepared in low binding Eppendorf tubes on ice using careful pipetting to avoid introduction of air bubbles. Each sample was then pipetted into multiple wells of a 96-well half-area, low-binding, clear bottom and PEG coating plate (Corning 3881), 80 μL per well. Aβ42 kinetics have been performed in the absence or the presence of Netoglitazone, Mitoglitazone, Rosiglotazone, Rivoglitazone, Pioglitazone, Ciglitazone, Englitazone, Darglitazone, Troglitazone and B alaglitazone."}, "[3]": {"test_system": "GMC101 (Aβ worms)", "experiment": "Survival rate of Aβ worms", "format": "in vivo, C. elegans", "conditions": "administered at D3; D5 of adulthood", "method": "as §1"}, "[4]": {"test_system": "CL2331 (Aβ3-42::GFPMuscular worms)", "experiment": "Automated motility assay, Aβ3-42::GFPMuscular worms", "format": "in vivo, C. elegans", "conditions": "compared to untreated worms", "method": "CL2331; dvIs37 [myo-3p::GFP::A-Beta (3-42)+rol-6(su1006)] (Aβ3-42::GFPMuscular worms). Maintain at 16 C. Roller. Diffuse and aggregated GFP expression in body wall muscle. Low brood size. Sicker at higher temperatures. (C. D. Link et al., The β amyloid peptide can act as a modular aggregation domain. Neurobiol. Dis. 32, 420-425 (2008));\n(§3) Briefly, Netoglitazone stocks (5 mM in 100% DMSO) were used at an appropriate concentration to seed 9-cm NGM plates. Plates were then placed in a laminar flow hood at room temperature (22° C.) for up to 4 hours to dry. […]\nas §2"}, "[5]": {"test_system": "control worms", "conditions": "C. elegans, in vivo", "method": "as §1"}, "[6]": {"test_system": "GMC101 (Aβ worms)", "conditions": "GMC101, C. elegans, in vivo", "method": "as §1"}, "[7]": {"test_system": "NL5901 (α-syn worms)", "experiment": "Automated motility assay, α-syn worms", "format": "in vivo, C. elegans", "conditions": "same concentration range; compared with effect in Aβ worms", "method": "NL5901 (pkIs2386 [α-synuclein::YFP unc-119(+)]) (“α-syn worms”), in which α-synuclein fused to YFP relocates to inclusions, which are visible as early as day 2 after hatching and increase in number and size during the aging of the animals, up to late adulthood (day 17) (T. J. Van Ham et al., C. elegans model identifies genetic modifiers of α-synuclein inclusion formation during aging. PLoS Genetics. 4 (2008));\nas §3, §2"}}, "data": [{"smiles": "O=C1NC(=O)C(Cc2ccc3cc(OCc4ccccc4F)ccc3c2)S1", "note": "(stereo not drawn) [Netoglitazone]", "values": [{"measurement": "mobility of Aβ worms after treatment at L4", "setting": "[1]; 0-10 μM, administered at L4", "result": "greatly improves the mobility"}, {"measurement": "mobility after late administration", "setting": "[1]; administered at D3, D5 of adulthood", "result": "increase"}, {"measurement": "concentration range of best protective effect on mobility", "setting": "[1]; administered at L4, observed at D3 of adulthood", "result": "0.5 to 5", "unit": "µM"}, {"measurement": "delay in Aβ42 aggregation", "setting": "[2]", "result": "substantial delay"}, {"measurement": "survival rate after late administration", "setting": "[3]", "result": "increase"}, {"measurement": "motility of Aβ3-42::GFPMuscular worms", "setting": "[4]", "result": "significantly improves the motility"}, {"measurement": "maximum tolerable dose", "setting": "[5]", "result": "< 500", "unit": "µM"}, {"measurement": "maximum tolerable dose", "setting": "[6]", "result": "less than 50 μM"}, {"measurement": "effect on mobility of α-syn worms", "setting": "[7]", "result": "negligible"}]}]}
